Assay results published in US20250195521A1 (Revolution Medicines, Inc., priority 2020, published 2025).
Like-named read-outs stand apart in the source and are kept apart here.

Assays:
KRAS G12S = KRAS G12S (Homo sapiens (Human), UniProt P01116+P62937, G12S); assay: Ras-Raf disruption/FRET/MOA assay (BRAF RBD, Cyclophilin A); type: biochemical; conditions: read-out: KRAS G12S FRET IC50
Procedure: (§1) Compound is present in plate wells as a 10-point 3-fold dilution series starting at a final concentration of 30 μM. After incubation at 25° C. for 3 hours, a mixture of Anti-His Eu—W1024 and anti-GST allophycocyanin is then added to assay sample wells at final concentrations of 10 nM and 50 nM, respectively, and the reaction incubated for an additional 1.5 hours. […] Compounds that facilitate disruption of a Ras: RAF complex are identified as those eliciting a decrease in the TR-FRET ratio relative to DMSO control wells.
(§2) Disruption of B-Raf Ras-Binding Domain (BRAF^RBD) Interaction with K-Ras by Compounds of the Invention (Also Called a FRET Assay or an MOA Assay)
(§3) Note—The following protocol describes a procedure for monitoring disruption of K-Ras G12C (GMP-PNP) binding to BRAF^RBD by a compound of the invention. This protocol may also be executed substituting other Ras proteins or nucleotides.
(§4) The purpose of this biochemical assay was to measure the ability of test compounds to facilitate ternary complex formation between a nucleotide-loaded K-Ras isoform and Cyclophilin A; the resulting ternary complex disrupts binding to a BRAF^RBD construct, inhibiting K-Ras signaling through a RAF effector. Data is reported as IC50 values.
(§5) In assay buffer containing 25 mM HEPES pH 7.3, 0.002% Tween20, 0.1% BSA, 100 mM NaCl and 5 mM MgCl2, tagless Cyclophilin A, His6-K-Ras-GMPPNP, and GST-BRAF^RBD were combined in a 384-well assay plate at final concentrations of 25 μM, 12.5 nM and 50 nM, respectively. Compound was present in plate wells as a 10-point 3-fold dilution series starting at a final concentration of 30 μM. After incubation at 25° C. for 3 hours, a mixture of Anti-His Eu—W1024 and anti-GST allophycocyanin was then added to assay sample wells at final concentrations of 10 nM and 50 nM, respectively, and the reaction incubated for an additional 1.5 hours. […] Compounds that facilitate disruption of a K-Ras: RAF complex were identified as those eliciting a decrease in the TR-FRET ratio relative to DMSO control wells.

KRAS G13C = KRAS G13C (Homo sapiens (Human), UniProt P01116+P62937, G13C); assay: as above; type: biochemical; conditions: read-out: KRAS G13C FRET IC50
Sequence of KRAS G13C (P01116 other isoform, or with tags, fused parts or gaps G13C): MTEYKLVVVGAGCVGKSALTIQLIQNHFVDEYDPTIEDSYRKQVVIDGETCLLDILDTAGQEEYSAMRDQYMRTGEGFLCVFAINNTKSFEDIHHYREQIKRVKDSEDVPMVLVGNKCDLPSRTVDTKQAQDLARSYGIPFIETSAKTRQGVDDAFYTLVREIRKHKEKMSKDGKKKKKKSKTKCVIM
Sequence of KRAS G13C (P62937 whole entry): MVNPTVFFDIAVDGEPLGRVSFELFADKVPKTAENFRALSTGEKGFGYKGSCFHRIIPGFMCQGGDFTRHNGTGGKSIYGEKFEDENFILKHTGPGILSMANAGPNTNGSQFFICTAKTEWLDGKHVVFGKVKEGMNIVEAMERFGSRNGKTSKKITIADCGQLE
Procedure: as §1, §2, §3, §4, §5

KRAS G12V = KRAS G12V (Homo sapiens (Human), UniProt P01116+P62937, G12V); assay: as above; type: biochemical; conditions: read-out: KRAS G12V FRET IC50
Sequence of KRAS G12V (P01116 other isoform, or with tags, fused parts or gaps G12V): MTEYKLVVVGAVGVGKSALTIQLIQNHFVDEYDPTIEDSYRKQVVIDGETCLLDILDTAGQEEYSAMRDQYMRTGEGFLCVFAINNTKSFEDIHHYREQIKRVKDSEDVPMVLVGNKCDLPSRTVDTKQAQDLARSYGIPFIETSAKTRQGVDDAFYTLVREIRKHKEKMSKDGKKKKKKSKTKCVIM
Sequence of KRAS G12V (P62937 whole entry): as the sequence (P62937 whole entry) above
Procedure: as §1, §2, §3, §4, §5

KRAS G13D = KRAS G13D (Homo sapiens (Human), UniProt P01116+P62937, G13D); assay: as above; type: biochemical; conditions: read-out: KRAS G13D FRET data IC50
Sequence of KRAS G13D (P01116 other isoform, or with tags, fused parts or gaps G13D): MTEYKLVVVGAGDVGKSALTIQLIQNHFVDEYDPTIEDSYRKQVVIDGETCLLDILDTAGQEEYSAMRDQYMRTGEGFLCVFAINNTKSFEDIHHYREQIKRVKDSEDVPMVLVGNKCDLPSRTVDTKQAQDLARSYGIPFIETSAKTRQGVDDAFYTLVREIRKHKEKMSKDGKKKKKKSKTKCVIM
Sequence of KRAS G13D (P62937 whole entry): as the sequence (P62937 whole entry) above
Procedure: as §1, §2, §3, §4, §5

NRAS G12C = NRAS G12C (Homo sapiens (Human), UniProt P01111+P62937, G12C); assay: as above; type: biochemical; conditions: read-out: NRAS G12C FRET data IC50
Sequence of NRAS G12C (P01111 whole entry G12C): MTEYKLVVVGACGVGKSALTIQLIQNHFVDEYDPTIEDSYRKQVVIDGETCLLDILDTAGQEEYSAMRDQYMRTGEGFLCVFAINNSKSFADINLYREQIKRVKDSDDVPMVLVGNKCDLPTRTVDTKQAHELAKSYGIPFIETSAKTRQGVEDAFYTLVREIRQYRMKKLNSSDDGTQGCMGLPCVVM
Sequence of NRAS G12C (P62937 whole entry): as the sequence (P62937 whole entry) above
Procedure: as §1, §2, §3, §4, §5

KRAS G12D = KRAS G12D (Homo sapiens (Human), UniProt P01116+P62937, G12D); assay: as above; type: biochemical; conditions: read-out: KRAS G12D FRET IC50
Sequence of KRAS G12D (P01116 other isoform, or with tags, fused parts or gaps G12D): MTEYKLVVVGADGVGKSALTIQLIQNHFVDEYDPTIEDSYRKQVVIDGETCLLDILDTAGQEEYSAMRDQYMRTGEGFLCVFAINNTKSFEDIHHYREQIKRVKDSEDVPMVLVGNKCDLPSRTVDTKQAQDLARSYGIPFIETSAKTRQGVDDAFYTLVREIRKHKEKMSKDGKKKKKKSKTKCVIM
Sequence of KRAS G12D (P62937 whole entry): as the sequence (P62937 whole entry) above
Procedure: as §1, §2, §3, §4, §5

KRAS WT = KRAS WT (Homo sapiens (Human), UniProt P01116+P62937); assay: as above; type: biochemical; conditions: read-out: KRAS WT FRET data IC50
Sequence of KRAS WT (P01116 other isoform, or with tags, fused parts or gaps): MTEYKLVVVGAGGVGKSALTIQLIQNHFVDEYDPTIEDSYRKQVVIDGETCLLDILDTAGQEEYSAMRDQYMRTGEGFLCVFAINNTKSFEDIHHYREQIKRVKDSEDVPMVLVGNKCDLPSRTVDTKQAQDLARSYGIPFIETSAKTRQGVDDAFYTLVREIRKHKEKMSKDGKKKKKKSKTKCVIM
Sequence of KRAS WT (P62937 whole entry): as the sequence (P62937 whole entry) above
Procedure: as §1, §2, §3, §4, §5

KRAS G12C = KRAS G12C (Homo sapiens (Human), UniProt P01116+P62937, G12C); assay: as above; type: biochemical; conditions: read-out: KRAS G12C FRET IC50
Sequence of KRAS G12C (P01116-2 other isoform, or with tags, fused parts or gaps G12C): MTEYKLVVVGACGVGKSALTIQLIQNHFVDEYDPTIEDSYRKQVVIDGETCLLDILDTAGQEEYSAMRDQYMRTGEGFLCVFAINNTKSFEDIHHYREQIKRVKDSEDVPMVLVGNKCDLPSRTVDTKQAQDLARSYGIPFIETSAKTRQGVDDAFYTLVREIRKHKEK
Sequence of KRAS G12C (P62937 whole entry): as the sequence (P62937 whole entry) above
Procedure: as §1, §2, §3, §4, §5

[1] = tested on: Capan-1 cells (K-Ras G12V); assay: CellTiter-Glo cell viability, Capan-1; type: cell-based, human; conditions: K-Ras G12V, 5-day treatment, read-out: Capan-1 Cell Viability IC50
Procedure: Note—The following protocol describes a procedure for monitoring cell viability of K-Ras mutant cancer cell lines in response to a compound of the invention. Other RAS isoforms may be employed, though the number of cells to be seeded will vary based on cell line used.
Test compounds (132.5 nl) were directly dispensed into the assay plates containing cells. […] On day 5, assay plates and their contents were equilibrated to room temperature for approximately 30 minutes. […] Luminescence was measured using the PerkinElmer Enspire. Data were normalized by the following: (Sample signal/Avg. DMSO)*100. The data were fit using a four-parameter logistic fit.

[2] = tested on: K-Ras G12C (NCI-H358 cells); assay: Potency assay: pERK in NCI-H358 cells; type: cell-based, human; conditions: Homo sapiens; NCI-H358 cells, 4 hours; read-out: pERK EC50 (H358 KRAS G12C)
Summary of the method: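 Cells plated the day before were exposed for 4 h at 37° C, 5% CO2 to a 10-point, 3-fold DMSO dilution series (10 mM top stock), in duplicate. Phospho-ERK was read by AlphaLISA SureFire Ultra or by In-Cell Western with DRAQ5 DNA stain, and IC50 came from a 4-parameter sigmoidal fit.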

Sequence of KRAS G12S (P01116 other isoform, or with tags, fused parts or gaps G12S): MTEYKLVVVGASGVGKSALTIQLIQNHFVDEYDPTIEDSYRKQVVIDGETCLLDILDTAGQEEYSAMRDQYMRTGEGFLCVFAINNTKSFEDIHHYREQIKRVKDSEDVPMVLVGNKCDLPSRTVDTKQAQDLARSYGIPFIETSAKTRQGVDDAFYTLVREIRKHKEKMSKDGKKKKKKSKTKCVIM
Sequence of KRAS G12S (P62937 whole entry): as the sequence (P62937 whole entry) above

Structure (SMILES) | IC50 (KRAS G12S) | IC50 (KRAS G13C) | IC50 (KRAS G12V) | IC50 (KRAS G13D) | IC50 (NRAS G12C) | IC50 (KRAS G12D) | IC50 (KRAS WT) | IC50 (KRAS G12C) | EC50 [2] | IC50 [1] | IC50 ([1]; Homo sapiens, CAPAN-1, 120 h)
CCn1c(-c2cccnc2[C@H](C)OC)c2c3cc(ccc31)-c1cccc(c1)C[C@H](NC(=O)[C@H](C(C)C)N(C)C(=O)[C@@H]1CCN(C3COC3)C1)C(=O)N1CCC[C@H](N1)C(=O)OCC(C)(C)C2 [Compound A206] | > 10000 nM | 1000 to 10000 nM | > 10000 nM | 1000 to 10000 nM | 1000 to 10000 nM | > 10000 nM | 1000 to 10000 nM | 1000 to 10000 nM |  |  | > 10000 nM
CCn1c(-c2cccnc2[C@H](C)OC)c2c3cc(ccc31)-c1csc(n1)C[C@H](NC(=O)[C@H](C(C)C)N1CCC3(CCN(C)C3)C1=O)C(=O)N1CCC[C@H](N1)C(=O)OCC(C)(C)C2 (stereo partly drawn) [Compound A213] | 1000 to 10000 nM | 1000 to 10000 nM | > 10000 nM | 1000 to 10000 nM | 1000 to 10000 nM | 1000 to 10000 nM | 1000 to 10000 nM | 1000 to 10000 nM |  |  | > 10000 nM
CCn1c(-c2cccnc2[C@H](C)OC)c2c3cc(ccc31)-c1cc(O)cc(c1)C[C@H](NC(=O)[C@H](C(C)C)N(C)C(=O)C1CNCCO1)C(=O)N1CCC[C@H](N1)C(=O)OCC(C)(C)C2 (stereo partly drawn) [Compound A229] | 100 to 1000 nM | 10 to 100 nM | 100 to 1000 nM | 10 to 100 nM | 10 to 100 nM | 100 to 1000 nM | 100 to 1000 nM | 10 to 100 nM |  |  | 1000 to 10000 nM
CCn1c(-c2cnccc2COC)c2c3cc(ccc31)-c1cc(O)cc(c1)C[C@H](NC(=O)[C@H](C(C)C)N(C)C(=O)N1CCOCC1)C(=O)N1CCC[C@H](N1)C(=O)OCC(C)(C)C2 [Compound A257] | 100 to 1000 nM | 100 to 1000 nM | 100 to 1000 nM | 100 to 1000 nM | 100 to 1000 nM | 1000 to 10000 nM | 100 to 1000 nM | 100 to 1000 nM | < 5000 nM |  | 

Further lines, with some results ahead:

IC50 (KRAS G12S) | IC50 (KRAS G13C) | IC50 (KRAS G12V) | IC50 (KRAS G13D) | IC50 (NRAS G12C) | IC50 (KRAS G12D) | IC50 (KRAS WT) | IC50 (KRAS G12C) | EC50 [2] | Structure (SMILES) | IC50 [1] | IC50 ([1]; Homo sapiens, CAPAN-1, 120 h)
100 to 1000 nM | 100 to 1000 nM | 100 to 1000 nM | 100 to 1000 nM | 10 to 100 nM | 100 to 1000 nM | 100 to 1000 nM | 10 to 100 nM |  | CCn1c(-c2cccnc2[C@H](C)OC)c2c3cc(ccc31)-c1csc(n1)C[C@H](NC(=O)[C@H](C(C)C)N(C)C(=O)N1CC(OC)C1)C(=O)N1CCC[C@H](N1)C(=O)OCC(C)(C)C2 [Compound A205] | 10 to 100 nM | 
10 to 100 nM | 10 to 100 nM | 100 to 1000 nM | 10 to 100 nM | 10 to 100 nM | 100 to 1000 nM | 10 to 100 nM | 10 to 100 nM |  | CCn1c(-c2cccnc2[C@H](C)OC)c2c3cc(ccc31)-c1cc(O)cc(c1)C[C@H](NC(=O)[C@H](C(C)C)N(C)C(=O)[C@@H]1NC[C@@H]3C[C@@H]31)C(=O)N1CCC[C@H](N1)C(=O)OCC(C)(C)C2 [Compound A217] |  | 100 to 1000 nM
10 to 100 nM | 10 to 100 nM | 10 to 100 nM | 100 to 1000 nM | 10 to 100 nM | 100 to 1000 nM | 10 to 100 nM | 10 to 100 nM |  | CCn1c(-c2cccnc2[C@H](C)OC)c2c3cc(ccc31)-c1cc(O)cc(c1)C[C@H](NC(=O)[C@H](C(C)C)N(C)C(=O)C1CCCC1)C(=O)N1CCC[C@H](N1)C(=O)OCC(C)(C)C2 [Compound A219] |  | 100 to 1000 nM
